Reference: patent US12558329B2 (New York University, priority 2021, dated 2026)
“Also recorded” adds a separate entry of the source. Peptide text beside a SMILES is read from it. * marks the point of attachment. Cbz = O=C(OCc1ccccc1)*

Tests used:
[1] = tested on: MIAPACA2 cells; experiment: 18O2-GASSP labelling of MIAPACA2 cells treated with MG132, IOX1, DFO or ascorbate; assay type: cell-based, human
Procedure: As additional controls, MIAPACA2 cells were treated with an iron chelator (DFO, FIG. 5E-5F), a proteasome inhibitor (MG132) to induce proteotoxic stress, and physiological levels of ascorbate, an antioxidant, to determine the effects of ROS on ^18O-labelling. Labelling of ^18O γ-butyrobetaine was blocked by IOX1 and DFO, consistent with the fact that trimethyllysine hydroxylase (TMLH) is an iron-dependent dioxygenase (FIGS. 7A-7D). […] Total levels of ^18O labelled methionine sulfoxide increased upon MG132 treatment and decreased following ascorbate treatment (FIGS. 7I-7M)^10.
(§1) All steps involved in setting up labelling with ^18O2 were performed at room temperature and inside a chemical fume hood. The procedure may vary depending on the type and number of tissue culture plates in the chamber and the amount of media in the plates. Users must test the system by using ^16O2:CO2:N2 or other unlabelled gases to optimize conditions for their needs and avoid consumption of costly labelled gases. Cells were treated with or without 5 μM MG132, 500 μM IOX1, 250 μM DFO, or 70 μM ascorbate, before placing tissue culture plates into the modular incubator chamber (MIC) containing a wireless oxygen sensor and a 15 cm dish of water to maintain humidity. Next, the clamps were closed to form an air-tight seal between the lid and platform of the MIC. […] N2 flushing was repeated for a total of three times, or until the sensor in the chamber stabilized at 0% O2 for 10 minutes.
Next, the inlet valve was opened and the ^18O2:5% CO2:N2 gaseous mixture was flushed into the system at a rate of 2.5 L/min. Subsequently, the outlet valve was immediately opened to allow gas flow out of the chamber, and to release the pressure in the system. The chamber was injected with the ^18O2:5% CO2:N2 gaseous mixture for 1 minute before the inlet and outlet valves were closed simultaneously. The chamber was allowed to equilibrate for 5 minutes. This process was repeated seven times, or until the desired oxygen concentration was reached and was stable. For 3%, 1%, and 0.2% ^18O2 labelling studies, the chamber was infused with 5%:5%:90%, 1.5%:5%:93.5%, and 0.5%:5%:94.5% ^18O2:CO2:N2, respectively. The ^18O2-infused MIC was then placed in a 37° C., 5% CO2 tissue culture incubator for 24 hours. The oxygen concentration in the chamber was monitored regularly. Oxygen measurements after 20 hours was not feasible due to the battery life of the sensor. At the end of the experiment, the chamber was opened inside a chemical fume hood before metabolite extraction.
(§2) For metabolomics, briefly, cells were washed in 4° C. 0.9% saline and metabolites were extracted with 46% methanol:23% H2O:[…] chloroform that contained a labelled amino acid standard mix (MSK-A2-1.2, Cambridge Isotope Laboratories, Inc.). Enzymatic assay samples were extracted using 80% methanol: 20% H2O that contained labelled amino acid standards. Extracts were placed into 1.5 mL Eppendorf tubes, vortexed at 4° C. for 10 min and centrifuged at 4° C. for 10 min at 17,200×g in a microcentrifuge. The aqueous phase was transferred to vials for GC-MS or Eppendorf tubes for LC-MS. Polar samples were evaporated in a SpeedVac and samples were resolved by GC-MS or LC-MS. Lipid samples were dried using a stream of N2 (for ^18O labelling studies) or air. Metabolite and lipid extracts were submitted to the NYULMC Metabolomics Core Resource Laboratory.
For polar metabolomics, the LC column was a Millipore ZIC-pHILIC (2.1×150 […], 5 μm bead size) coupled to a Dionex UltiMate 3000 system. The column oven temperature was held at 25° C. The flow rate was 100 μL/min, and the injection volume was 1 μL. Buffer A was 10 mM ammonium carbonate in water, pH 9, and Buffer B was neat acetonitrile. The gradient profile was 80-20% B (0-30 min), 20-80% B (30-31 min), and 80-80% B (31-42 min). MS Analyses were carried out on a Thermo Q Exactive HF mass spectrometer using a heated electrospray ionization (HESI) source. […]

[2] = tested on: MIAPACA2 cells; experiment: 13C9-Tyr tracing in MIAPACA2 cells with the indicated reagents; assay type: cell-based, human
From the text: 4-HMA biosynthesis has only been described in some bacteria and in rabbits. […] The production of 4-HPPA occurs in the first step of tyrosine (Tyr) catabolism via tyrosine transaminase (TAT). In rabbits, 4-HMA was proposed to be synthesized from the degradation of tyramine and octopamine by dopamine β-hydroxylase (Dbh) and monoamine oxidase (Mao) (FIG. 9A)^13. Tyramine is also a Tyr-derived metabolite. Therefore, all known substrates required to generate 4-HMA are derived from Tyr. In addition, Tyr can also be made from phenylalanine (Phe) by Phe hydroxylase (PAH) in mammalian liver cells^14. To elucidate the human 4-HMA biosynthetic pathway, the fates of ^13C9-Tyr and ^13C6-Phe were traced in human cells. […] Additionally, the generation of 4-HMA by […] would result in the incorporation of a single ^18O at the Ca position of the carboxylic acid of 4-HMA (FIG. 9A). However, this was not observed by ^18O labelling (FIG. 8B). Therefore, it was unlikely that 4-HMA biosynthesis from octopamine and tyramine catabolism occurred in the present system.
Unexpectedly, 4-HMA levels also were lower in hyperoxic (21%) conditions compared to 3% O2, reflecting either decreased production or increased consumption of this metabolite at 21% O2.
Therefore, CoQ10 was used as an indirect readout of 4-HB production. To assess the ability of human cells to biosynthesize CoQ10, cells were labelled with ^13C6-Phe or ^13C9-Tyr. CoQ10 was completely biosynthesized from Tyr, but not Phe, in human cells (FIG. 11B).
as §2
For polar metabolomics, the LC column was a Millipore ZIC-pHILIC (2.1×150 […], 5 μm bead size) coupled to a Dionex UltiMate 3000 system. The column oven temperature was held at 25° C. The flow rate was 100 μL/min, and the injection volume was 1 μL. Buffer A was 10 mM ammonium carbonate in water, pH 9, and Buffer B was neat acetonitrile. The gradient profile was 80-20% B (0-30 min), 20-80% B (30-31 min), and 80-80% B (31-42 min). MS Analyses were carried out on a Thermo Q Exactive HF mass spectrometer using a heated electrospray ionization (HESI) source. The method duration was 30 min using a polarity-switching, top 5 method. The spray voltage for both positive and negative ion modes was 3.5 kV. The capillary temperature was 320° C. with a maximum spray current of 100 ρA. The full MS scan was carried out at 120,000 resolution with a scan range of 67-1000 m/z. For ^18O2 labelling experiments, full MS scans were carried out at 240,000 resolution at the same scan range. Tandem MS spectra were obtained at 15,000 resolution. All data were acquired in profile mode. Peak heights were analyzed using Xcalibur (ThermoFisher Scientific).
Lipid metabolomics were acquired using a Waters CSH-C18 (2.1×100 mm, 1.7 μm) column coupled to a Dionex UltiMate 3000 system. The column oven temperature was held at 55° C. The flow rate was 300 μL/min and the injection volume was 1 μL. Buffer A was 60:40 acetonitrile:water, 0.1% formic acid and Buffer B was 90:10 isopropanol:acetonitrile, 10 mM ammonium formate. […]

[3] = tested on: human cells; experiment: 18O2-GASSP labelling of human cells, untargeted polar metabolomics, with or without IOX1; assay type: cell-based; details: 18O labelling of the metabolite in cells treated with IOX1 (dioxygenase inhibitor), 24 hours
Procedure: To map the molecular fate of O2 in metabolic pathways in living cells, GASSP was used to carry out ^18O2 labelling in cell lines of different tissue origins at ^18O2 concentrations that represented physiological (3%), hypoxic (1%), and severely hypoxic (0.2%) oxygen tensions found in tissues and tumours^7. At the end of each run, polar metabolites were extracted and untargeted polar metabolomics using liquid chromatography-high resolution mass spectrometry (LC-MS) were carried out to identify metabolites labeled with ^18O.
A list of unique features identified by untargeted metabolomics that were >0.25% (natural abundance of ^18O is 0.2%) labelled by ^18O atoms in each cell line at each oxygen tension was generated. In addition, background signal was controlled by requiring that ^18O labeled peaks had to have a signal that was two-fold greater than naturally occurring isotopes found in non-labelled (^16O) metabolite cell extracts. To determine the proportion of unique ^18O labelled features that were due to dioxygenase activity, cells were treated with a pan-dioxygenase inhibitor (IOX1) at concentrations that inhibit iron-dependent dioxygenases, such as the HIF1α prolyl hydroxylases (FIGS. 5E-5F) and identified ^18O labelled polar metabolites. This list of ^18O metabolites was generated by identifying all features in the unlabelled samples, filtering these features against blank samples to remove background peaks, and calculating the fractional ^18O labelling with the assumption that a metabolite would have no more than three oxygen atoms labelled, followed by manual curation of labelled features (FIG. 1B and FIG. 5G). […] These ^18O-labelled features were termed the oxy-metabolome.
To determine the identities of the labeled metabolites, the list of ^18O labelled features was annotated to their corresponding unlabelled metabolites using retention time matching, tandem mass spectrometry (MS2) fragmentation patterns, and database searching.
as §1

Compound	IOX1 Sensitive (Yes/No) [3]	other results
CC(=O)N(O)CCCCCNC(=O)CCC(=O)N(O)CCCCCNC(=O)CCC(=O)N(O)CCCCCN [DFO, N-[5-[[4-[5-[acetyl(hydroxy)amino]pentylamino]-4-oxobutanoyl]-hydroxyamino]pentyl]-N′-(5-aminopentyl)-N′-hydroxybutanediamide]		18O labelling of methionine ([1]; 3%, 1%, 0.2% 18O2, 24 hours): less sensitive; also recorded: only partially blocked; 18O labelling of γ-butyrobetaine ([1]; 3%, 1%, 0.2% 18O2, 24 hours): sensitive; also recorded: blocked; 18O labelling of 4-HMA ([1]; MIAPACA2, 3%, 1%, 0.2% 18O2, 24 hours, 500 μM IOX1, 250 μM DFO): sensitive; also recorded: significantly attenuated; 4-HMA levels ([1]; MIAPACA2, 18O2 labelling, 24 hours, 500 μM IOX1, 250 μM DFO, 70 μM ascorbate): significantly attenuated; 13C9-Tyr-derived 4-HMA ([2]; 3% 16O2, 24 hours): attenuated or ablated; also recorded: severely inhibited; CoQ10 labelling from 13C9-Tyr (incorporation of tyrosine into CoQ10) ([2]; 3% 16O2, 24 hours): eliminated; also recorded: completely blocked; 4-HPLA pools ([2]; 13C-Tyr, 3% O2, 24 hours): increased
CC(C)C[C@@H](C=O)NC(=O)[C@H](CC(C)C)NC(=O)[C@H](CC(C)C)NC(=O)OCc1ccccc1 [MG132] (Cbz-Leu-Leu-Leu-aldehyde)		Total levels of 18O labelled methionine sulfoxide ([1]; 5 μM MG132, 70 μM ascorbate, 24 hours): increased
CCCCC(=O)O[C@H](CC(=O)[O-])C[N+](C)(C)C [Metabolite 4, Valerylcarnitine]	Yes	
CSCC[C@H](N)C(=O)O [Metabolite 13, Methionine]	Yes	
CC(=O)N[C@H]1C(O)O[C@H](CO)[C@@H](O)[C@@H]1O (stereo partly drawn) [Metabolite 16, N-Acetyl-D-glucosamine]	No	
CC(=O)N[C@@H](CO)[C@@H](O)[C@@H](O)[C@H](O)CO [Metabolite 17, N-Acetyl-D-galactosaminitol]	Yes	
C[N+](C)(C)CCCC(=O)[O-] [Metabolite 21, g-Butyrobetaine]	Yes	
C[S+]([O-])CC[C@H](N)C(=O)O (some centres unmarked) [Metabolite 23, Methionine Sulfoxide]	Yes	
O=C(O)[C@@H]1C[C@@H](O)CN1 [Metabolite 24, Hydroxyproline]	Yes	
NC(=O)C1=CN([C@@H]2O[C@H](COP(=O)(O)OP(=O)(O)OC[C@H]3O[C@@H](n4cnc5c(N)ncnc54)[C@H](O)[C@@H]3O)[C@@H](O)[C@H]2O)C=CC1 [Metabolite 28, NADH]	Yes	
CN(CC(=O)O)C(=N)N [Metabolite 29, Creatine]	Yes	
NCCS(=O)O [Metabolite 32, Hypotaurine]	Yes	
N[C@@H](CCC(=O)O)C(=O)O [Metabolite 33, Glutamate]	Yes	
O=c1ccn([C@@H]2O[C@H](COP(=O)(O)O)[C@@H](O)[C@H]2O)c(=O)[nH]1 [Metabolite 36, UMP]	Yes	
C[S+](CC[C@H](N)C(=O)[O-])C[C@H]1O[C@@H](n2cnc3c(N)ncnc32)[C@H](O)[C@@H]1O (some centres unmarked) [Metabolite 41, S-adenosyl methionine]	Yes	
N[C@@H](CCSC[C@H](N)C(=O)O)C(=O)O [Metabolite 42, Cystathionine]	Yes	
O=C[C@@H](O)[C@@H](O)[C@H](O)[C@H](O)COP(=O)(O)O [Metabolite 46, D-Mannose 6-phosphate]	Yes	
